Reference: ChEMBL document CHEMBL5465560, “Selectivity Literature for EUbOPEN Chemogenomic Library” (2024)

Key:
[1] = target: T1, Ephrin type-B receptor 3 (Homo sapiens) (UniProt P54753); experiment: Selectivity interaction (Kinase panel (DSF assay)) EUB0001559a EPHB3
T1 sequence (whole entry): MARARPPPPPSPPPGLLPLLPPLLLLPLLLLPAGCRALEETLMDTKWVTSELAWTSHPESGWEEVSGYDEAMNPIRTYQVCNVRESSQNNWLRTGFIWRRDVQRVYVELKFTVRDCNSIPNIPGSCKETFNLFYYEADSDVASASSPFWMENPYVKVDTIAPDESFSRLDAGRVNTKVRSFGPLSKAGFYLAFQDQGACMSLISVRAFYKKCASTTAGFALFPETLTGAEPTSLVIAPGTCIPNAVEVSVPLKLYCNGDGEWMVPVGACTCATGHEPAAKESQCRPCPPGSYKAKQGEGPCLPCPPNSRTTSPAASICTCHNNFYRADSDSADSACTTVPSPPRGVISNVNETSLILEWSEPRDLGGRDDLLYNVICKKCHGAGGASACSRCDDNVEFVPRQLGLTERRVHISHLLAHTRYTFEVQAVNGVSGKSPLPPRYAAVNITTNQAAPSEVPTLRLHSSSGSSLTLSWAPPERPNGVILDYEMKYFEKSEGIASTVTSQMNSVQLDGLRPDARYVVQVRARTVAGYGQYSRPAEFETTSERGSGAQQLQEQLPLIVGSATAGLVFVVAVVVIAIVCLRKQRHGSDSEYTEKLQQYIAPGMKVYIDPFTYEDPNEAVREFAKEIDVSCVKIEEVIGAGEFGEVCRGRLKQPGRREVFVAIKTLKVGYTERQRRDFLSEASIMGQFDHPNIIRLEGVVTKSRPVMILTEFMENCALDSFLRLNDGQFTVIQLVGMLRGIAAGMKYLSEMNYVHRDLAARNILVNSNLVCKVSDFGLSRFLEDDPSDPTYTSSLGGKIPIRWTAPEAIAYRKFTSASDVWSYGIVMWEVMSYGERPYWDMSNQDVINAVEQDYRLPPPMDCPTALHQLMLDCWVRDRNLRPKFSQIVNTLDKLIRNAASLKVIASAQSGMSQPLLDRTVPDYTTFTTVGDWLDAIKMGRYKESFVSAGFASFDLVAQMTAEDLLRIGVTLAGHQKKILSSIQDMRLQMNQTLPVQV

[2] = target: Transient receptor potential cation channel subfamily M member 6 (Homo sapiens) (UniProt Q9BX84); experiment: Selectivity interaction (KinomeScan (DiscoverX)) EUB0000045b TRPM6
Transient receptor potential cation channel subfamily M member 6 (Homo sapiens), sequence (Q9BX84 whole entry): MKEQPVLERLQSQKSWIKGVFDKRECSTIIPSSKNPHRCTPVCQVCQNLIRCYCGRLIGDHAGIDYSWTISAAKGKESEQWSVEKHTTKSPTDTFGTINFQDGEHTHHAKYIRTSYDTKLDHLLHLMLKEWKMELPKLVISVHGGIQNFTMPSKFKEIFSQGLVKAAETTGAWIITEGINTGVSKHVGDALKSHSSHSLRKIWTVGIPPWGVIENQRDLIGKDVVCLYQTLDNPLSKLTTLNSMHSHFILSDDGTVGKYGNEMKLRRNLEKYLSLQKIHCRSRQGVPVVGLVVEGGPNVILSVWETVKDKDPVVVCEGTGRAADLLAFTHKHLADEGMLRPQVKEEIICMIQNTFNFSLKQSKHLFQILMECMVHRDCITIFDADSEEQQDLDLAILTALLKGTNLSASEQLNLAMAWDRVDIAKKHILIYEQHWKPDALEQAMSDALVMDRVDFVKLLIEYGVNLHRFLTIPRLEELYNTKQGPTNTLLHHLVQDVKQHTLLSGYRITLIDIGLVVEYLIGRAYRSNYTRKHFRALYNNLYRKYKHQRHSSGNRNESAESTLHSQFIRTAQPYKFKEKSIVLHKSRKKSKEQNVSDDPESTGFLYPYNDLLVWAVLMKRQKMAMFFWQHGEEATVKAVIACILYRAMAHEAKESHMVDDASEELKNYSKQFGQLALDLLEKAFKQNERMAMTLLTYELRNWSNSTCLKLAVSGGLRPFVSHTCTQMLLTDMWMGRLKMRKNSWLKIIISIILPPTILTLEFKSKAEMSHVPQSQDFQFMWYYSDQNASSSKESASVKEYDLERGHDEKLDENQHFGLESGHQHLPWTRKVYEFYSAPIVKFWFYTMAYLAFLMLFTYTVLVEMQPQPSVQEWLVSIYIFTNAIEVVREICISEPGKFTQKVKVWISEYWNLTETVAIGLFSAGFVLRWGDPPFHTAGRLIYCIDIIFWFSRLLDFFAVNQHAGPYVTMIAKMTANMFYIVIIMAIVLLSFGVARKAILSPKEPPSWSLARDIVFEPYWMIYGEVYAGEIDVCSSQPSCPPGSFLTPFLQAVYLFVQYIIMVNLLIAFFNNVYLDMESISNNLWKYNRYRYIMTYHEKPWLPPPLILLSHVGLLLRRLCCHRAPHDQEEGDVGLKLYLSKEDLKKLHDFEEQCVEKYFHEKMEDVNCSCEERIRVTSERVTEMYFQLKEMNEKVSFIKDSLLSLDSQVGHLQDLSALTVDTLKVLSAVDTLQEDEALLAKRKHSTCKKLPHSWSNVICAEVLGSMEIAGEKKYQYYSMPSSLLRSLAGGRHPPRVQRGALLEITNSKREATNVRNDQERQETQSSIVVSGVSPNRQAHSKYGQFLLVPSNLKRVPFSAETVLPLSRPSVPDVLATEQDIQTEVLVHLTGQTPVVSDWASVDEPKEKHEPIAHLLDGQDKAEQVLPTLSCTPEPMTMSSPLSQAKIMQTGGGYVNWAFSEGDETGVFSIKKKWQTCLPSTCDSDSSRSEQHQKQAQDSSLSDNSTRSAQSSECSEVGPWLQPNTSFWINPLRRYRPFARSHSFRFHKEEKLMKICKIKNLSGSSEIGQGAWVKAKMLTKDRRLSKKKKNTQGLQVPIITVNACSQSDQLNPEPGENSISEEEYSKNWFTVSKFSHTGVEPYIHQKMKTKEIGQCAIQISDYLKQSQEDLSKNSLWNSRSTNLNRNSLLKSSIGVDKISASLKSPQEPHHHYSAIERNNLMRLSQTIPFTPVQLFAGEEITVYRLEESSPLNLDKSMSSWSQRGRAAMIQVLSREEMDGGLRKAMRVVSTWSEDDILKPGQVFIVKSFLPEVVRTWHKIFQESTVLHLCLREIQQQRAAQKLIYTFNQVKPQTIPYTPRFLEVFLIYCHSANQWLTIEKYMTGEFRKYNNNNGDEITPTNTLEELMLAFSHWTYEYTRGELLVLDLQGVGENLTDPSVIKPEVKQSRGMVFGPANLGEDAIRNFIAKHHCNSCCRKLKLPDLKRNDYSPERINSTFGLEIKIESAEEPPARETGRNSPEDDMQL

[3] = target: Activated CDC42 kinase 1 (Homo sapiens, UniProt Q07912); experiment: Selectivity interaction (KinomeScan (DiscoverX)) EUB0000045b TNK2
Activated CDC42 kinase 1, sequence (Q07912 whole entry, looked up): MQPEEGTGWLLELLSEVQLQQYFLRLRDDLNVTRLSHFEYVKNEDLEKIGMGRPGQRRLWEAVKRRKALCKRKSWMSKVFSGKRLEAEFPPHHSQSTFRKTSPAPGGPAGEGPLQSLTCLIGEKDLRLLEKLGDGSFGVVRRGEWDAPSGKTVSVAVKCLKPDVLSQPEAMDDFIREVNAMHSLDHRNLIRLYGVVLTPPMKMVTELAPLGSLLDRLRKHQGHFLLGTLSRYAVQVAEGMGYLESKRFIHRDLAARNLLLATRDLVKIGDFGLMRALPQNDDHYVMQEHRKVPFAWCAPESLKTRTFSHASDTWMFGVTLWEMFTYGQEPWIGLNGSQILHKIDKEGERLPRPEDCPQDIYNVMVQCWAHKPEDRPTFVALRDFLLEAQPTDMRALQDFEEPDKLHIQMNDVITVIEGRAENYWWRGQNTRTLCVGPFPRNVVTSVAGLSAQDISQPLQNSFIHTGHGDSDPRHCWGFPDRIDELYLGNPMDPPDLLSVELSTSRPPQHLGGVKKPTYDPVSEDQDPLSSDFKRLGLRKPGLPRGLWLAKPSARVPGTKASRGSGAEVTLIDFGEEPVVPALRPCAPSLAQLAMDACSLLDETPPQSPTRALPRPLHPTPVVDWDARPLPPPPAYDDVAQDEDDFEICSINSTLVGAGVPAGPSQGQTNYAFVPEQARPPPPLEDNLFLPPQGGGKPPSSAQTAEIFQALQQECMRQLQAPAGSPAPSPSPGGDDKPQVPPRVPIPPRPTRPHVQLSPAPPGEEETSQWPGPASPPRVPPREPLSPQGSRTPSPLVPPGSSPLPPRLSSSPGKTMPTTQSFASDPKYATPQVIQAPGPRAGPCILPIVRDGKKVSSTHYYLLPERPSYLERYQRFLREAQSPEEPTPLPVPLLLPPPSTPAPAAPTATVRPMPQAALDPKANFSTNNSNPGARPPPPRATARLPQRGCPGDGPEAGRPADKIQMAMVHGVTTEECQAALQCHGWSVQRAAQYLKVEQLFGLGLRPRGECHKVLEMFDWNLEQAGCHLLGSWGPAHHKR

[4] = target: T2, 5-hydroxytryptamine receptor 3A (Homo sapiens) (UniProt P46098); experiment: Selectivity interaction (Panel of kinases, GPCRs, ion channels and transporters (enzymatic assay)) EUB0000223bCl HTR3A
T2 sequence (whole entry): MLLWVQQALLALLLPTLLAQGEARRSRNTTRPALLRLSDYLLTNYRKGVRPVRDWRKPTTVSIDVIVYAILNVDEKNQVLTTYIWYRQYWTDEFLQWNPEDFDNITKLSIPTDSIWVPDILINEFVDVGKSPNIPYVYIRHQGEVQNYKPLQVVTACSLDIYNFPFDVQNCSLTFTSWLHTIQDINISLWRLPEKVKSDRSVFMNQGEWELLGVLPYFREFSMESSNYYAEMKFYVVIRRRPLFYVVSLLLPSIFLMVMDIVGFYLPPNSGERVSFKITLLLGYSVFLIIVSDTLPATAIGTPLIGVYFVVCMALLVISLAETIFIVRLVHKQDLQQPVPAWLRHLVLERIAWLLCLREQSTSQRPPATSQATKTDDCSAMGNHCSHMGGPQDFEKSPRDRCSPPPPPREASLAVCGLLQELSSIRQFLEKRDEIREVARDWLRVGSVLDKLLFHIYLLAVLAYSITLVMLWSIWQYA

[5] = target: T3, Phosphatidylinositol 5-phosphate 4-kinase type-2 alpha (Homo sapiens) (UniProt P48426); experiment: Selectivity interaction (Kinase panel (literature)) EUB0001199aCl PIP4K2A; conditions: at 1 µM
T3 sequence (whole entry): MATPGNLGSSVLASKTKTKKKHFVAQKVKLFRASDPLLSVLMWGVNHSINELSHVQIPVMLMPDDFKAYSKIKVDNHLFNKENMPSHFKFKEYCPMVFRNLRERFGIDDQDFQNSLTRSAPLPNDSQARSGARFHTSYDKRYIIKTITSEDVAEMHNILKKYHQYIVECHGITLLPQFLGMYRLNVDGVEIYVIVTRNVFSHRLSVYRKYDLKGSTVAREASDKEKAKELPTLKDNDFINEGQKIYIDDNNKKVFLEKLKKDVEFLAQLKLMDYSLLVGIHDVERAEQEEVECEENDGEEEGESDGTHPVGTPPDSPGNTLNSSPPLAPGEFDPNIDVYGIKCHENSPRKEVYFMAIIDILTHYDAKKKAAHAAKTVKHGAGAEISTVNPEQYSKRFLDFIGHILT

[6] = target: T4, Casein kinase I isoform alpha-like (Homo sapiens) (UniProt Q8N752); experiment: Selectivity interaction (KinomeScan (DiscoverX)) EUB0000618a CSNK1A1L; conditions: at 10 µM
T4 sequence (whole entry): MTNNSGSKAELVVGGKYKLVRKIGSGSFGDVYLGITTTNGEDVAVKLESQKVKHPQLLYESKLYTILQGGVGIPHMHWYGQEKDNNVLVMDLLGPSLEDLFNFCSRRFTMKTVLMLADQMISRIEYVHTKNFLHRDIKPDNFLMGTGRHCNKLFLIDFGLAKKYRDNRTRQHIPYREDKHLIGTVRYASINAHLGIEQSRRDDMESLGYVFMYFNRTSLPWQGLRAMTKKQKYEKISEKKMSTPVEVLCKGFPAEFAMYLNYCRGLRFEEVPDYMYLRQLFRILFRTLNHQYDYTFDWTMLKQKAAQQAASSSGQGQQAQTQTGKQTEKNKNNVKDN

[7] = target: T5, STE20-related kinase adapter protein alpha (Homo sapiens) (UniProt Q7RTN6); experiment: Selectivity interaction (ActivX KiNativ screen (kinase selectivity in THP-1 cell lysates)) EUB0000639a STRADA; assay type: subcellular; conditions: lysate, at 5 µM
T5 sequence (whole entry): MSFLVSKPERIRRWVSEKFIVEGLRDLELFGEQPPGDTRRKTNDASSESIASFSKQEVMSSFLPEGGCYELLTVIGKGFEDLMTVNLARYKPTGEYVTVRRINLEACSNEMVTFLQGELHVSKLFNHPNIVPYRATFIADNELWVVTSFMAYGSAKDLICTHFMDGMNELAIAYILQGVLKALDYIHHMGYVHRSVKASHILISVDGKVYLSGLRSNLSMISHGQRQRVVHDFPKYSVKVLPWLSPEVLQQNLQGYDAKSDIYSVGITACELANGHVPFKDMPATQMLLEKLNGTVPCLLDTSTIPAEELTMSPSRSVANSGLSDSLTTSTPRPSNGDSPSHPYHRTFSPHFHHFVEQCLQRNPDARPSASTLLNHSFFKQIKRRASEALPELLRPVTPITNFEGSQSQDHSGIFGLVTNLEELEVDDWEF

CN(C(=O)c1cnn2cccnc12)c1cc2c(cc1N1CCOCC1)C(=O)N(C[C@@H](F)C(C)(C)O)C2
dTM [1]: 0 K

C=CC(=O)Nc1cc(-n2c(=O)ccc3cnc4ccc(-c5ccc(NS(C)(=O)=O)cc5)cc4c32)ccc1C
% of control ([2]; at 1 µM): 100%
% of control ([2]; at 10 µM): 100%
% of control ([3]; at 1 µM): 100%
% of control ([3]; at 10 µM): 100%

COc1cc(C(=O)N2CC[C@@H](O)[C@@H](N)C2)cc2nc(-c3cc4ccccc4n3CC3CC3)n(C)c12
pXC50 [4]: 4.3 M

CN1Cc2nccc(-c3cn(C)nc3-c3ccc(F)cc3)c2C1=O
% of inhibition [5]: -6%

O[C@H]1CC[C@H](Nc2ncc3nc(Nc4c(F)cc(F)cc4F)n([C@H]4CCOC4)c3n2)CC1
% of control [6]: 55%

CC[C@@H]1[C@H](F)C(=O)N[C@@H]1COc1nccc2cc(C(N)=O)c(OC)cc12 [ZIMLOVISERTIB]
% of inhibition [7]: -29.5%
